Here are results for 20 compounds from US20080269241A1, “BICYCLIC AMINOPROPYL TETRAHYDRO-PYRAZOLO-PYRIDINE MODULATORS OF CATHEPSIN S” (priority 2007, published 2008).

One test deals with T1, human cathepsin S (CatS) (Homo sapiens, UniProt P25774).
T1 construct: made in house; host or cells: baculovirus system (insect cells)
T1 sequence (P25774 115-331): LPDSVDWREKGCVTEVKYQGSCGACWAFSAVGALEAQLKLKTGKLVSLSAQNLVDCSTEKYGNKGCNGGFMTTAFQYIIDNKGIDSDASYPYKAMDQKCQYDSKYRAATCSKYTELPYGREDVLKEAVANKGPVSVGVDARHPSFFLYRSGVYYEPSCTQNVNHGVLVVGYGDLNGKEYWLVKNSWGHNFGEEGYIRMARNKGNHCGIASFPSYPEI
Nature of the test: Recombinant human cathepsin S (CatS) fluorogenic substrate inhibition assay. The test is classed as biochemical.
Conditions: not given
The protocol: Recombinant human cathepsin S (CatS) was expressed in the baculovirus system and purified in one step with a thiopropyl-sepharose column. […] The assay is run in 150 mM sodium acetate pH 5.0 containing 1.5 mM DTT and 150 mM NaCl. […] Measurements are taken every min for 20 min. The rate is calculated from the slope of the increase in fluorescence and the percent inhibition is calculated from this.
Consider `CC(C)CC(=O)NCc1cc(-c2nn(CC(O)CN3CCC(c4ccccc4)CC3)c3c2CN(S(C)(=O)=O)CC3)ccc1C(F)(F)F` (centres unmarked) [Example 288, N-(5-{1-[2-Hydroxy-3-(4-phenyl-piperidin-1-yl)-propyl]-5-methanesulfonyl-4,5,6,7-tetrahydro-1H-pyrazolo[4,3-c]pyridin-3-yl}-2-trifluoromethyl-benzyl)-3-methyl-butyramide], for which the IC50 is 10 nM.

Still in this test, the particulars now being: recombinant human CatS, 10 μM Z-Valine-Valine-Arginine-AMC, pH 5.0; average of results obtained; read-out: CatS IC50.
For `CC(C)CC(=O)NCc1cc(-c2nn(CC(O)CN3CCC(O)(c4ccccn4)CC3)c3c2CN(S(C)(=O)=O)CC3)ccc1C(F)(F)F` (centres unmarked) [Example 258, N-(5-{1-[2-Hydroxy-3-(4′-hydroxy-3′,4′,5′,6′-tetrahydro-2′H-[2,4′]bipyridinyl-1′-yl)-propyl]-5-methanesulfonyl-4,5,6,7-tetrahydro-1H-pyrazolo[4,3-c]pyridin-3-yl}-2-trifluoromethyl-benzyl)-3-methyl-butyramide], the concentration for half-maximal inhibition (IC50) came out at 40 nM.

Regarding `CS(=O)(=O)N1CCc2c(c(-c3ccc(C(F)(F)F)c(CNC(=O)CN4CCS(=O)(=O)CC4)c3)nn2CCCN2CCC(N3CCCC3=O)CC2)C1` [Example 162, 2-(1,1-Dioxo-1λ^6-thiomorpholin-4-yl)-N-[5-(5-methanesulfonyl-1-{3-[4-(2-oxo-pyrrolidin-1-yl)-piperidin-1-yl]-propyl}-4,5,6,7-tetrahydro-1H-pyrazolo[4,3-c]pyridin-3-yl)-2-trifluoromethyl-benzyl]-acetamide], the IC50 came to 380 nM.

Take `CS(=O)(=O)N1CCc2c(c(-c3ccc(C(F)(F)F)c(CNC(=O)c4cccnc4)c3)nn2CC(O)CN2CCC(N3CCCC3=O)CC2)C1` (centres unmarked) [Example 126, N-[5-(1-{2-Hydroxy-3-[4-(2-oxo-pyrrolidin-1-yl)-piperidin-1-yl]-propyl}-5-methanesulfonyl-4,5,6,7-tetrahydro-1H-pyrazolo[4,3-c]pyridin-3-yl)-2-trifluoromethyl-benzyl]-nicotinamide]: the IC50 was determined as 210 nM.

As to `CN(C)c1ccc2c(n1)n(C1CCN(CC(O)Cn3nc(-c4ccc(C(F)(F)F)c(CNC(=O)CO)c4)c4c3CCN(S(C)(=O)=O)C4)CC1)c(=O)n2C` (centres unmarked) [Example 152, 2-Hydroxy-N-[5-(1-{3-[4-(5-Dimethylamino-1-methyl-2-oxo-1,2-dihydro-imidazo[4,5-b]pyridin-3-yl)-piperidin-1-yl]-2-hydroxy-propyl}-5-methanesulfonyl-4,5,6,7-tetrahydro-1H-pyrazolo[4,3-c]pyridin-3-yl)-2-trifluoromethyl-benzyl]-acetamide], the IC50 is 250 nM.

Regarding `CS(=O)(=O)N1CCc2c(c(-c3ccc(C(F)(F)F)c(CNC(=O)c4ccc(Br)s4)c3)nn2CC(O)CN2CCC(N3CCCC3=O)CC2)C1` (centres unmarked) [Example 48, 5-Bromo-thiophene-2-carboxylic acid 5-(1-{2-hydroxy-3-[4-(2-oxo-pyrrolidin-1-yl)-piperidin-1-yl]-propyl}-5-methanesulfonyl-4,5,6,7-tetrahydro-1H-pyrazolo[4,3-c]pyridin-3-yl)-2-trifluoromethyl-benzylamide], the half-inhibitory concentration (IC50) is 30 nM.

For the compound `CS(=O)(=O)N1CCc2c(c(-c3ccc(C(F)(F)F)c(CNC(=O)c4cncs4)c3)nn2CC(O)CN2CCC(N3CCCC3=O)CC2)C1` (centres unmarked) [Example 134, Thiazole-5-carboxylic acid 5-(1-{2-hydroxy-3-[4-(2-oxo-pyrrolidin-1-yl)-piperidin-1-yl]-propyl}-5-methanesulfonyl-4,5,6,7-tetrahydro-1H-pyrazolo[4,3-c]pyridin-3-yl)-2-trifluoromethyl-benzylamide], the IC50 amounted to 380 nM.

Turning to `Cc1ccsc1C(=O)NCc1cc(-c2nn(CC(O)CN3CCC(N4CCCC4=O)CC3)c3c2CN(S(C)(=O)=O)CC3)ccc1C(F)(F)F` (centres unmarked) [Example 49, 3-Methyl-thiophene-2-carboxylic acid 5-(1-{2-hydroxy-3-[4-(2-oxo-pyrrolidin-1-yl)-piperidin-1-yl]-propyl}-5-methanesulfonyl-4,5,6,7-tetrahydro-1H-pyrazolo[4,3-c]pyridin-3-yl)-2-trifluoromethyl-benzylamide], the IC50 came to 160 nM.

In the case of `CS(=O)(=O)c1ccc(C(=O)NCc2cc(-c3nn(CC(O)CN4CCC(N5CCCC5=O)CC4)c4c3CN(S(C)(=O)=O)CC4)ccc2C(F)(F)F)s1` (centres unmarked) [Example 119, 5-Methanesulfonyl-thiophene-2-carboxylic acid 5-(1-{2-hydroxy-3-[4-(2-oxo-pyrrolidin-1-yl)-piperidin-1-yl]-propyl}-5-methanesulfonyl-4,5,6,7-tetrahydro-1H-pyrazolo[4,3-c]pyridin-3-yl)-2-trifluoromethyl-benzylamide], the half-inhibitory concentration (IC50) was 140 nM.

Turning to `CS(=O)(=O)N1CCc2c(c(-c3ccc(Cl)c(NC(=O)c4ccc(F)cc4)c3)nn2CCCN2CCN(c3cccc(Cl)c3)CC2)C1` [Example 234, N-[2-Chloro-5-(1-{3-[4-(3-chloro-phenyl)-piperazin-1-yl]-propyl}-5-methanesulfonyl-4,5,6,7-tetrahydro-1H-pyrazolo[4,3-c]pyridin-3-yl)-phenyl]-4-fluoro-benzamide], the 50% inhibitory concentration (IC50) amounted to 840 nM.

On to `Cn1ccnc1C(=O)NCc1cc(-c2nn(CC(O)CN3CCC(N4CCCC4=O)CC3)c3c2CN(S(C)(=O)=O)CC3)ccc1C(F)(F)F` (centres unmarked) [Example 190, 1-Methyl-1H-imidazole-2-carboxylic acid 5-(1-{2-hydroxy-3-[4-(2-oxo-pyrrolidin-1-yl)-piperidin-1-yl]-propyl}-5-methanesulfonyl-4,5,6,7-tetrahydro-1H pyrazolo[4,3-c]pyridin-3-yl)-2-trifluoromethyl-benzylamide], for which the half-maximal inhibitory concentration (IC50) stood at 1700 nM.

As to `CCCC(=O)NCc1cc(-c2nn(CCCN3CCC(N4CCCC4=O)CC3)c3c2CN(S(C)(=O)=O)CC3)ccc1C(F)(F)F` [Example 110, N-[5-(5-Methanesulfonyl-1-{3-[4-(2-oxo-pyrrolidin-1-yl)-piperidin-1-yl]-propyl}-4,5,6,7-tetrahydro-1H-pyrazolo[4,3-c]pyridin-3-yl)-2-trifluoromethyl-benzyl]-butyramide], the IC50 was found to be 90 nM.

For the compound `CC(C)=CC(=O)NCc1cc(-c2nn(CC(O)CN3CCC(c4cccc(O)c4)CC3)c3c2CN(S(C)(=O)=O)CC3)ccc1C(F)(F)F` (centres unmarked) [Example 275, 3-Methyl-but-2-enoic acid 5-(1-{2-hydroxy-3-[4-(3-hydroxy-phenyl)-piperidin-1-yl]-propyl}-5-methanesulfonyl-4,5,6,7-tetrahydro-1H-pyrazolo[4,3-c]pyridin-3-yl)-2-trifluoromethyl-benzylamide], the IC50 worked out at 10 nM.

As for `Cc1noc(C2CCN(CC(O)Cn3nc(-c4ccc(C(F)(F)F)c(CNC(=O)CC(C)C)c4)c4c3CCN(S(C)(=O)=O)C4)CC2)n1` (centres unmarked) [Example 286, N-[5-(1-{2-Hydroxy-3-[4-(3-methyl-[1,2,4]oxadiazol-5-yl)-piperidin-1-yl]-propyl}-5-methanesulfonyl-4,5,6,7-tetrahydro-1H-pyrazolo[4,3-c]pyridin-3-yl)-2-trifluoromethyl-benzyl]-3-methyl-butyramide], the half-inhibitory concentration (IC50) worked out at 30 nM.

Take `CC(=O)c1ccc(C(=O)NCc2cc(-c3nn(CC(O)CN4CCC(N5CCCC5=O)CC4)c4c3CN(S(C)(=O)=O)CC4)ccc2C(F)(F)F)s1` (centres unmarked) [Example 109, 5-Acetyl-thiophene-2-carboxylic acid 5-(1-{2-hydroxy-3-[4-(2-oxo-pyrrolidin-1-yl)-piperidin-1-yl]-propyl}-5-methanesulfonyl-4,5,6,7-tetrahydro-1H-pyrazolo[4,3-c]pyridin-3-yl)-2-trifluoromethyl-benzylamide]: the IC50 is 80 nM.

Consider `CS(=O)(=O)N1CCc2c(c(-c3ccc(C(F)(F)F)c(CNC=O)c3)nn2CC(O)CN2CCC(N3CCCC3=O)CC2)C1` (centres unmarked) [Example 178, N-[5-(1-{2-Hydroxy-3-[4-(2-oxo-pyrrolidin-1-yl)-piperidin-1-yl]-propyl}-5-methanesulfonyl-4,5,6,7-tetrahydro-1H-pyrazolo[4,3-c]pyridin-3-yl)-2-trifluoromethyl-benzyl]-formamide], for which the IC50 is 1650 nM.

For `CS(=O)(=O)N1CCc2c(c(-c3ccc(C(F)(F)F)c(CNC(=O)C4CC4)c3)nn2CC(O)CN2CCC(N3CCCC3=O)CC2)C1` (centres unmarked) [Example 276, Cyclopropanecarboxylic acid 5-(1-{2-hydroxy-3-[4-(2-oxo-pyrrolidin-1-yl)-piperidin-1-yl]-propyl}-5-methanesulfonyl-4,5,6,7-tetrahydro-1H-pyrazolo[4,3-c]pyridin-3-yl)-2-trifluoromethyl-benzylamide], the IC50 amounted to 90 nM.

Turning to `Cc1coc(NCc2cc(-c3nn(CCCN4CCC(N5CCCC5=O)CC4)c4c3CN(S(C)(=O)=O)CC4)ccc2C(F)(F)F)n1` [Example 177, 1-{1-[3-(5-Methanesulfonyl-3-{3-[(4-methyl-oxazol-2-ylamino)-methyl]-4-trifluoromethyl-phenyl}-4,5,6,7-tetrahydro-pyrazolo[4,3-c]pyridin-1-yl)-propyl]-piperidin-4-yl}-pyrrolidin-2-one], the half-maximal inhibitory concentration (IC50) was 1660 nM.

For `CC(C)(C)OC(=O)N1CCC(C(=O)NCc2cc(-c3nn(CC(O)CN4CCC(N5CCCC5=O)CC4)c4c3CN(S(C)(=O)=O)CC4)ccc2C(F)(F)F)CC1` (centres unmarked) [Example 127, 4-[5-(1-{2-Hydroxy-3-[4-(2-oxo-pyrrolidin-1-yl)-piperidin-1-yl]-propyl}-5-methanesulfonyl-4,5,6,7-tetrahydro-1H-pyrazolo[4,3-c]pyridin-3-yl)-2-trifluoromethyl-benzylcarbamoyl]-piperidine-1-carboxylic acid tert-butyl ester], the half-maximal inhibitory concentration (IC50) was found to be 220 nM.

Take `CC(C)CC(=O)NCc1cc(-c2nn(CC(O)CN3CCC(C(=O)N4CCCC4)CC3)c3c2CN(S(C)(=O)=O)CC3)ccc1C(F)(F)F` (centres unmarked) [Example 284, N-[5-(1-{2-Hydroxy-3-[4-(pyrrolidine-1-carbonyl)-piperidin-1-yl]-propyl}-5-methanesulfonyl-4,5,6,7-tetrahydro-1H-pyrazolo[4,3-c]pyridin-3-yl)-2-trifluoromethyl-benzyl]-3-methyl-butyramide]: the 50% inhibitory concentration (IC50) stood at 60 nM.
